Measurements reported in ChEMBL document CHEMBL4342516, “Discovery of Membrane-Bound Pyrophosphatase Inhibitors Derived from an Isoxazole Fragment” (ACS Med Chem Lett, 2020).
Active and inactive are the calls of the source. The calls are words filed in the database; no cut-off is given here.

Legend:
[1] = Inhibition of Thermotoga maritima membrane bound pyrophosphatase at 100 uM using sodium pyrophosphate as substrate preincubated for 5 mins followed by substrate addition and measured after 5 mins by spectrophotometry
Thermotoga maritima = experiment: Inhibition of Thermotoga maritima membrane bound pyrophosphatase at 100 uM using sodium pyrophosphate as substrate preincubated for 5 mins followed by substrate addition and measured after 5 mins by spectrophotometry relative to control
[2] = (§1) Inhibition of Plasmodium falciparum 3D7 pyrophosphatase-VP1 expressed in baculovirus infected insect cells using sodium pyrophosphate as substrate preincubated for 5 mins followed by substrate addition and measured after 10 mins by spectrophotometry
Plasmodium falciparum [3] = experiment: Antiplasmodial activity against Plasmodium falciparum 3D7 infected in human erythrocytes assessed as growth inhibition after 72 hrs by SYBR Gren-I fluorescent dye based method; assay type: functional, organism-based; details: 3D7, 72 h
Plasmodium falciparum [4] = experiment: as §1

Row | SMILES | IC50 ([1]; read-out: IC50) | further results
1 | CC(C)(C)c1cc(C(=O)Nc2nc3ccccc3s2)cc(C(C)(C)C)c1 | 91 µM | –
2 | CCOC(=O)c1cc(-c2cc(C(C)(C)C)cc(C(C)(C)C)c2)on1 | 72 µM | –
3 | O=c1[nH]c2ccc(S(=O)(=O)CCO)cc2o1 | 43 µM | inhibition (Thermotoga maritima): > 50%
4 | Cc1cc(C)cc(-c2cc(C(=O)Oc3ccccc3)no2)c1 | 26 µM | –
5 | CCOC(=O)c1ccc(S(=O)(=O)NC2=NC(=O)CS2)cc1 | 120 µM | inhibition (Thermotoga maritima): > 50%
6 | CC(C)(C)c1cc(C(=O)NCC(=O)O)cc(C(C)(C)C)c1 | – | IC50 [1]: Not Active
7 | CC(C)(C)c1cc(C(=O)Nc2ccccc2Br)cc(C(C)(C)C)c1 | 47 µM | –
8 | Cc1cc(C)cc(-c2cc(C(=O)Oc3ccccc3Br)no2)c1 | 6.9 µM | IC50 [2]: 55 µM; IC50 (Plasmodium falciparum [3]): 99 µM
9 | CC(C)(C)c1cc(C(=O)Nc2nccs2)cc(C(C)(C)C)c1 | 39 µM | –
10 | CCOC(=O)c1cc(-c2ccc(OC)c(S(=O)(=O)Nc3cccc4c3OCO4)c2)on1 | 36 µM | –
11 | Cc1nc(-c2cc(C(=O)O)no2)cs1 | 17 µM | –
12 | O=C(Oc1ccccc1Br)c1cnc(-c2ccccc2)s1 | 48 µM | –
13 | Cc1c(-c2cc(C(=O)O)no2)cnn1C | – | IC50 [1]: Not Active
14 | Cc1cc(C)cc(-c2cc(C(=O)Nc3ccccc3Br)no2)c1 | – | IC50 [1]: Not Active
15 | CC(C)(C)c1cc(-c2cc(C(=O)Oc3ccccc3Br)no2)cc(C(C)(C)C)c1 | 10 µM | inhibition (Plasmodium falciparum [4]): inactive
16 | O=C(O)c1cc(-c2ccccc2)n[nH]1 | 130 µM | –
17 | CC(C)(C)c1cc(CCC(=O)O)cc(C(C)(C)C)c1 | – | IC50 [1]: Not Active
18 | Nc1ccc(S(=O)(=O)N2CCCC2C(=O)O)cc1 (stereo not given) | 110 µM | inhibition (Thermotoga maritima): > 50%
19 | O=C(O)c1csc(-c2ccc([N+](=O)[O-])cc2)n1 | 80 µM | –
20 | Cc1cccc(-c2cc(C(=O)Oc3ccccc3Br)no2)c1 | 6.1 µM | –
21 | O=C(O)c1cc(-c2ccc([N+](=O)[O-])cc2)[nH]n1 | – | IC50 [1]: Not Active
22 | O=C(O)c1cc(-c2ccccc2[N+](=O)[O-])on1 | 71 µM | inhibition (Thermotoga maritima): > 50%
23 | Cc1nc(-c2cc(C(=O)Oc3ccccc3Br)no2)cs1 | 460 µM | –
24 | CC(C)(C)c1cc(C(=O)Nc2ccc([N+](=O)[O-])cc2)cc(C(C)(C)C)c1 | 100 µM | –
25 | O=C(O)c1cnc(-c2ccccc2)s1 | 29 µM | –
26 | CC(C)(C)c1cc(C(=O)NCCCn2ccnc2)cc(C(C)(C)C)c1 | 210 µM | –
27 | CC(C)(C)c1cc(C(=O)Nc2ccc(S(N)(=O)=O)cc2)cc(C(C)(C)C)c1 | 47 µM | –
28 | CC(C)(C)c1cccc(-c2cc(C(=O)Oc3ccccc3Br)no2)c1 | 6.7 µM | –
